Our source for the IC50, DC50 and Dmax values is patent publication US20240150360A1 (THE REGENTS OF THE UNIVERSITY OF MICHIGAN, priority 2021, published 2024).

A value given as a limit tells only on which side of the number the result lay.

One test deals with HL60. Briefly: Cell growth inhibition in HL60. The format is cell-based. To be noted: Homo sapiens, HL-60, HL60 cells; read-out: Cell Growth Inhibition (IC50) HL60.
The target in another test is T1, P300 (Homo sapiens, UniProt Q09472).
T1 construct: endogenous in cells; host or cells: 22Rv1 (ATCC CRL-2505) human prostate cancer cells
T1 sequence (Q09472 whole entry): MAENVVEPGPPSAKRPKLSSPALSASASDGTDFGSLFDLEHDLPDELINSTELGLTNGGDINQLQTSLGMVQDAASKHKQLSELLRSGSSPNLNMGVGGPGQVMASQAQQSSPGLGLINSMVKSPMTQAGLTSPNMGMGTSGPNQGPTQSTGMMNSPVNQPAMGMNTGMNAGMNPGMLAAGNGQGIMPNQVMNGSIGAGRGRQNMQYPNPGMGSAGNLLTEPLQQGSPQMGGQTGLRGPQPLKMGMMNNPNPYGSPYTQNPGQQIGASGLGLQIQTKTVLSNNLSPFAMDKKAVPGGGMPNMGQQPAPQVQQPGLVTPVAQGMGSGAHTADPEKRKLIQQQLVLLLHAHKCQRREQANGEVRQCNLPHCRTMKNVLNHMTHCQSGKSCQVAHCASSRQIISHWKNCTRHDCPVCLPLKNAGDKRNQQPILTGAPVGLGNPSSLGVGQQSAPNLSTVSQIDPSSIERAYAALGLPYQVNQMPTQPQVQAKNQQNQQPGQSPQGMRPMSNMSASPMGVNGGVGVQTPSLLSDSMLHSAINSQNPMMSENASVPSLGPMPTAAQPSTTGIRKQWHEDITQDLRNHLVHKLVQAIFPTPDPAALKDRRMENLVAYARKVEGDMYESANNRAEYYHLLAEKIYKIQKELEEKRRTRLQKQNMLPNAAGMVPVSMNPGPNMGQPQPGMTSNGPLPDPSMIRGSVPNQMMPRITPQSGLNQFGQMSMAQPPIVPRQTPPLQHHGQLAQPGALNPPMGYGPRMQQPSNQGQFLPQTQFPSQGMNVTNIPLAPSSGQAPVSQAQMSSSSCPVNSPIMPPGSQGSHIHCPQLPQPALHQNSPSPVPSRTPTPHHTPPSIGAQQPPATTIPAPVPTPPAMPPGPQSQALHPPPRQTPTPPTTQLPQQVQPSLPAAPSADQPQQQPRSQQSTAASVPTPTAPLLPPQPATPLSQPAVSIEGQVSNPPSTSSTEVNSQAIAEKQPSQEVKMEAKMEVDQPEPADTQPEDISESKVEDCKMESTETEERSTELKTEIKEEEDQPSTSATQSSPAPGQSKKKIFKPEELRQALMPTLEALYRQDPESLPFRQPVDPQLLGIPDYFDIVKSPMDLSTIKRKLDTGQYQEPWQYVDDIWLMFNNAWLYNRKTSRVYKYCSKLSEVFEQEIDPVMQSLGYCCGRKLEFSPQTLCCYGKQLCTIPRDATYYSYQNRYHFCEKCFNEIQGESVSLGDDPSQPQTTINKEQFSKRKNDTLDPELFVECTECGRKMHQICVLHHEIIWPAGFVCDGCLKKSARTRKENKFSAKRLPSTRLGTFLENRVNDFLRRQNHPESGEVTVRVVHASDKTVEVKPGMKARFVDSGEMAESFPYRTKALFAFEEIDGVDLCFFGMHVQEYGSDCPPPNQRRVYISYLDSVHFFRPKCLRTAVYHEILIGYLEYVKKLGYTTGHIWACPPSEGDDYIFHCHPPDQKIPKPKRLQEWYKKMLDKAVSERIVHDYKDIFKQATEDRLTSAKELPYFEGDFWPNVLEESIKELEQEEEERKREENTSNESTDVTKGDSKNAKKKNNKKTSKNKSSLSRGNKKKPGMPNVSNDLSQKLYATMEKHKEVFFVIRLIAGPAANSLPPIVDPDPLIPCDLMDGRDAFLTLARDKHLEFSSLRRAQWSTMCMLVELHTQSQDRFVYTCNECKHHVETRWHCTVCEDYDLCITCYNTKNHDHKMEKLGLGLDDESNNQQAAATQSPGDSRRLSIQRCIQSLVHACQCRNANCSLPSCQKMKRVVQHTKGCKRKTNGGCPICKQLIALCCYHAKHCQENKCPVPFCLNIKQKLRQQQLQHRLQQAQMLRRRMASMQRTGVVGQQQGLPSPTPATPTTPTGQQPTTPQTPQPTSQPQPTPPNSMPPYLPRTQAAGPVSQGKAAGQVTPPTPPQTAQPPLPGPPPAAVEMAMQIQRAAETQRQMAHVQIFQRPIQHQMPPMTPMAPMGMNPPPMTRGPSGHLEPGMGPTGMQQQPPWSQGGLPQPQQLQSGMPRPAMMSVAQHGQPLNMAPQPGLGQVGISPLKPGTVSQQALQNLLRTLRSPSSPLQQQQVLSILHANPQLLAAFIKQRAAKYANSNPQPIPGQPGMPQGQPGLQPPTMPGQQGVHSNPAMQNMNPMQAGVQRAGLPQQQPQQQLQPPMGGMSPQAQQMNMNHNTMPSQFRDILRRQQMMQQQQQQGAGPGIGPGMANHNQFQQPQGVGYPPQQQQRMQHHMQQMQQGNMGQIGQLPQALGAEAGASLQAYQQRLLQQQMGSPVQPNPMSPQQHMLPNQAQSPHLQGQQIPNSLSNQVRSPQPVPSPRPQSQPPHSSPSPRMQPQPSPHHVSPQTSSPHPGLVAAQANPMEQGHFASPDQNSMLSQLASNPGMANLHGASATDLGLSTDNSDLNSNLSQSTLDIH
The test is described as follows: P300 degradation in 22Rv1 cells (5 h). The format is cell-based. To be noted: 22Rv1 cells, 5 h; for Dmax: read-out: P300 Degradation (22Rv1, 5 h) DCmax. The source says:
(§1) Biological Assays. […] Cells with 3-8 passages after purchase were used in experiments.

A further test concerns 22Rv1 cells. Briefly: Cell growth inhibition assay (CellTiter-Glo) in 22Rv1. The format is cell-based, human. To be noted: Homo sapiens, 22Rv1, 96 h, 22Rv1 cells, 96 h incubation; read-out: Cell Growth Inhibition (IC50) 22Rv1. The procedure, abridged: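 22Rv1 prostate cancer cells (passages 3-8, DMEM with 10% FBS) were seeded at 4000 cells/well with compound, 3-fold dilutions from 10 μM final. After 96 h at 37° C and 5% CO2, growth was read by CellTiter-Glo 2.0 luminescence.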

Another test addresses T2, CBP (Homo sapiens, UniProt Q92793).
T2 construct: endogenous in cells; host or cells: 22Rv1 (ATCC CRL-2505) human prostate cancer cells
Briefly: CBP degradation in 22Rv1 cells (5 h). The settings on record: 22Rv1 cells, 5 h; for Dmax: 22Rv1, 5 h, read-out: CBP Degradation (22Rv1, 5 h) DCmax. The format is cell-based.
Text: as §1

T2 sequence (Q92793 whole entry): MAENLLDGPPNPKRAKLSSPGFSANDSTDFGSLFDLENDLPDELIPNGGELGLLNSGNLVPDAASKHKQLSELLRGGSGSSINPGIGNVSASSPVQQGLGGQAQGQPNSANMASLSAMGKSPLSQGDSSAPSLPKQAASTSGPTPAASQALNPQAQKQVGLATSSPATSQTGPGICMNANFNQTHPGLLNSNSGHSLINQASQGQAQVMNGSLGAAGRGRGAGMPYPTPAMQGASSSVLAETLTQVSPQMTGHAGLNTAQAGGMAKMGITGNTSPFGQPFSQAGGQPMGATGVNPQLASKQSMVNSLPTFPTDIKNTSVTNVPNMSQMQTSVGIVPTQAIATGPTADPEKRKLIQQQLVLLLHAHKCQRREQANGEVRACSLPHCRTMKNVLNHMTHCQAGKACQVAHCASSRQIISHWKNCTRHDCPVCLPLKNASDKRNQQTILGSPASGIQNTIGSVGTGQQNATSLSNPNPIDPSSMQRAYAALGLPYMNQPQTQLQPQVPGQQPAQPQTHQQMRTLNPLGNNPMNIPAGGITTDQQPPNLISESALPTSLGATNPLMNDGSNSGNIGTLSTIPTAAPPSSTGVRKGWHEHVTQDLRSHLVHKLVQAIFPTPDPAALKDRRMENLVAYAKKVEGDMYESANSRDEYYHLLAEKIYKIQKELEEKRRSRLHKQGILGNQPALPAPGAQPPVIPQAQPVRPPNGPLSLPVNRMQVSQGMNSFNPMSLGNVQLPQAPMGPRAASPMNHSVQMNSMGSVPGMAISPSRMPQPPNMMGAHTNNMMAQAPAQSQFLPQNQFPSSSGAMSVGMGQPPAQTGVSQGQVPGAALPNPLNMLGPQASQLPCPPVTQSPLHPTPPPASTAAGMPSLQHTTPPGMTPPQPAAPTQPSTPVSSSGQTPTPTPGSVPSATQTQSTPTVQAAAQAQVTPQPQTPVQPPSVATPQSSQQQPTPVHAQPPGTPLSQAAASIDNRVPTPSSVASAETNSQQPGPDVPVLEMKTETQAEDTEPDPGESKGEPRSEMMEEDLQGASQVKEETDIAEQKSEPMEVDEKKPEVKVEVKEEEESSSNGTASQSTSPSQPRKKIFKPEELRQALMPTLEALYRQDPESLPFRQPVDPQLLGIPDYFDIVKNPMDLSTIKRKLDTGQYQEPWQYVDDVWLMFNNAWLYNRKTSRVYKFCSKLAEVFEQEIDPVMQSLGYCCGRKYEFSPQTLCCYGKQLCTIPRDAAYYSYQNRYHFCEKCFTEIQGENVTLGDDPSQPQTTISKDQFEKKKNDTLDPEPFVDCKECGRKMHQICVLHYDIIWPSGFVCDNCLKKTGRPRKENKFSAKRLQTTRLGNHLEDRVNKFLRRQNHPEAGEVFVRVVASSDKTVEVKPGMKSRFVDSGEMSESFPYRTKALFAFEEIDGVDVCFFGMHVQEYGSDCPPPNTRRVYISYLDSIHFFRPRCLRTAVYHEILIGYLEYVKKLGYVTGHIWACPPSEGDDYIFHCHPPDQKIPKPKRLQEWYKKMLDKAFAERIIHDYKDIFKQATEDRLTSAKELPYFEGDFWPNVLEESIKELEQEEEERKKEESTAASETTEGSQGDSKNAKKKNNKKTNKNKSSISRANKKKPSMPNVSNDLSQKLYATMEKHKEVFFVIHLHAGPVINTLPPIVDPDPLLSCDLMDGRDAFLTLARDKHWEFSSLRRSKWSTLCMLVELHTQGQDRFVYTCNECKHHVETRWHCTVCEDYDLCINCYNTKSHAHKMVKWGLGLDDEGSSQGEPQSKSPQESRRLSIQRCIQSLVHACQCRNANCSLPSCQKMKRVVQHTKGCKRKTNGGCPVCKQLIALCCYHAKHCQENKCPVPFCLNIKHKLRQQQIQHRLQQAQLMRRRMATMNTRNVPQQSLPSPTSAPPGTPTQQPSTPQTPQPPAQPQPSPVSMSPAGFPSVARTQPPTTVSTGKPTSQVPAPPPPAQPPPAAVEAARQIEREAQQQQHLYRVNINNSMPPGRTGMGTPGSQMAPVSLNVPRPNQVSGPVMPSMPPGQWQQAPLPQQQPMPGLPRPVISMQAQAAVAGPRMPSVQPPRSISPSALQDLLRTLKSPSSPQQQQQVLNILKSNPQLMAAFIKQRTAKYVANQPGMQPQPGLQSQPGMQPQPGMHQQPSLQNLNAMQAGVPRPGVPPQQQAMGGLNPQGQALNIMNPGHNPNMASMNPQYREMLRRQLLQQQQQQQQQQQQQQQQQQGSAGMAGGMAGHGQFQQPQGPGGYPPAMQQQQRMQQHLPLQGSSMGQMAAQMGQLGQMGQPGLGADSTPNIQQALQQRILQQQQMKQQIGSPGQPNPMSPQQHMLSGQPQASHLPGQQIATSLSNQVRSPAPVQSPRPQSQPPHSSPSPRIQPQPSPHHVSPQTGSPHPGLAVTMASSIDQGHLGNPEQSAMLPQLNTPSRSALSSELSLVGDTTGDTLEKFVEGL

In general, IC50 refers to the concentration needed to halve the response being measured. For orientation: DC50 means the concentration giving 50% degradation. Regarding `CC(=O)N1CCc2c(c(-c3cccc4ccccc34)nn2C2CCN(C(=O)CN3Cc4cc5c(cc4C3)C(=O)N(C3CCC(=O)NC3=O)C5=O)CC2)C1` (stereo not drawn) [CP-075, 6-(2-(4-(5-acetyl-3-(naphthalen-1-yl)-4,5,6,7-tetrahydro-1H-pyrazolo[4,3-c]pyridin-1-yl)piperidin-1-yl)-2-oxoethyl)-2-(2,6-dioxopiperidin-3-yl)-6,7-dihydropyrrolo[3,4-f]isoindole-1,3(2H,5H)-dione], the half-inhibitory concentration (IC50) in the test on HL60 and with 22Rv1 cells was less than 1 µM throughout. For the same molecule, the 50% degradation concentration (DC50) at P300 and on CBP was less than 10 nM in each case. The Dmax on P300 and at CBP was greater than 90% in each case.

Take `CC(=O)N1CCc2c(c(-c3cccc4ccccc34)nn2C2CCN(C(=O)CN3CCc4cc5c(cc4C3)C(=O)N(C3CCC(=O)NC3=O)C5=O)CC2)C1` (stereo not drawn) [CP-076, 6-(2-(4-(5-acetyl-3-(naphthalen-1-yl)-4,5,6,7-tetrahydro-1H-pyrazolo[4,3-c]pyridin-1-yl)piperidin-1-yl)-2-oxoethyl)-2-(2,6-dioxopiperidin-3-yl)-5,6,7,8-tetrahydro-1H-pyrrolo[3,4-g]isoquinoline-1,3(2H)-dione]: the figures for the half-maximal inhibitory concentration (IC50) in the test on HL60 and with 22Rv1 cells were less than 1 µM and greater than 10 µM, respectively. The DC50 at P300 and at CBP was less than 10 nM in each case. For the same molecule, the values for the Dmax at P300 and at CBP were greater than 70% and greater than 90%, respectively.

With `CC(=O)N1CCc2c(c(N3CCCc4cc5c(cc43)CCCC5)nn2C2CCN(C(=O)CN3Cc4cc5c(cc4C3)C(=O)N(C3CCC(=O)NC3=O)C5=O)CC2)C1` (stereo not drawn) [CP-077, 6-(2-(4-(5-acetyl-3-(3,4,6,7,8,9-hexahydrobenzo[g]quinolin-1(2H)-yl)-4,5,6,7-tetrahydro-1H-pyrazolo[4,3-c]pyridin-1-yl)piperidin-1-yl)-2-oxoethyl)-2-(2,6-dioxopiperidin-3-yl)-6,7-dihydropyrrolo[3,4-f]isoindole-1,3(2H,5H)-dione], the IC50 in the test on HL60 and with 22Rv1 cells was less than 1 µM throughout. Besides, the DC50 at P300 and at CBP was less than 10 nM each time. The Dmax on P300 and on CBP was greater than 90% each time.

As for `CC(=O)N1CCc2c(c(N3CCCc4cc5c(cc43)CCCC5)nn2C2CCN(C(=O)CN3CCc4cc5c(cc4C3)C(=O)N(C3CCC(=O)NC3=O)C5=O)CC2)C1` (stereo not drawn) [CP-078, 6-(2-(4-(5-acetyl-3-(3,4,6,7,8,9-hexahydrobenzo[g]quinolin-1(2H)-yl)-4,5,6,7-tetrahydro-1H-pyrazolo[4,3-c]pyridin-1-yl)piperidin-1-yl)-2-oxoethyl)-2-(2,6-dioxopiperidin-3-yl)-5,6,7,8-tetrahydro-1H-pyrrolo[3,4-g]isoquinoline-1,3(2H)-dione], the IC50 in the test with HL60 and in the test with 22Rv1 cells was less than 1 µM throughout. Moreover, the DC50 on P300 and at CBP was less than 10 nM each time. Further, the results for the Dmax at P300 and on CBP were greater than 70% and greater than 90%, respectively.

On to `CC(=O)N1CCc2c(c(N3CCCc4cc5c(cc43)C(C)CCC5)nn2C2CCN(C(=O)CN3Cc4cc5c(cc4C3)C(=O)N(C3CCC(=O)NC3=O)C5=O)CC2)C1` (stereo not drawn) [CP-079, 6-(2-(4-(5-acetyl-3-(9-methyl-3,4,6,7,8,9-hexahydrobenzo[g]quinolin-1(2H)-yl)-4,5,6,7-tetrahydro-1H-pyrazolo[4,3-c]pyridin-1-yl)piperidin-1-yl)-2-oxoethyl)-2-(2,6-dioxopiperidin-3-yl)-6,7-dihydropyrrolo[3,4-f]isoindole-1,3(2H,5H)-dione], for which the IC50 in the test with HL60 is less than 0.1 µM; with 22Rv1 cells it was less than 1 µM. Moreover, the half-maximal degradation concentration (DC50) at P300 and at CBP was less than 100 nM in each case. The figures for the Dmax on P300 and at CBP were greater than 70% and greater than 90%, respectively.

Take `CC(=O)N1CCc2cc3c(cc2C1)CCCN3c1nn(C2CCN(C(=O)CN3Cc4cc5c(cc4C3)C(=O)N(C3CCC(=O)NC3=O)C5=O)CC2)c2c1CN(C(C)=O)CC2` (stereo not drawn) [CP-080, 6-(2-(4-(5-acetyl-3-(7-acetyl-3,4,6,7,8,9-hexahydropyrido[3,4-g]quinolin-1(2H)-yl)-4,5,6,7-tetrahydro-1H-pyrazolo[4,3-c]pyridin-1-yl)piperidin-1-yl)-2-oxoethyl)-2-(2,6-dioxopiperidin-3-yl)-6,7-dihydropyrrolo[3,4-f]isoindole-1,3(2H,5H)-dione]: the half-maximal inhibitory concentration (IC50) in the test with HL60 and with 22Rv1 cells was greater than 10 µM each time. The half-maximal degradation concentration (DC50) at P300 and at CBP was less than 10 nM each time. For the same molecule, the Dmax on P300 and at CBP was greater than 70% throughout.

With `CC(=O)N1CCc2c(ccc3c2CCCN3c2nn(C3CCN(C(=O)CN4Cc5cc6c(cc5C4)C(=O)N(C4CCC(=O)NC4=O)C6=O)CC3)c3c2CN(C(C)=O)CC3)C1` (stereo not drawn) [CP-081, 6-(2-(4-(5-acetyl-3-(3-acetyl-1,3,4,8,9,10-hexahydro-3,7-phenanthrolin-7(2H)-yl)-4,5,6,7-tetrahydro-1H-pyrazolo[4,3-c]pyridin-1-yl)piperidin-1-yl)-2-oxoethyl)-2-(2,6-dioxopiperidin-3-yl)-6,7-dihydropyrrolo[3,4-f]isoindole-1,3(2H,5H)-dione], the IC50 with HL60 and in the test with 22Rv1 cells was greater than 10 µM throughout. In addition, the 50% degradation concentration (DC50) on P300 and on CBP was greater than 1000 nM throughout. Further, the Dmax on P300 and on CBP was less than 50% in each case.

With `CC(=O)N1CCc2c(c(-c3cccc4ccncc34)nn2C2CCN(C(=O)CN3Cc4cc5c(cc4C3)C(=O)N(C3CCC(=O)NC3=O)C5=O)CC2)C1` (stereo not drawn) [CP-082, 6-(2-(4-(5-acetyl-3-(isoquinolin-8-yl)-4,5,6,7-tetrahydro-1H-pyrazolo[4,3-c]pyridin-1-yl)piperidin-1-yl)-2-oxoethyl)-2-(2,6-dioxopiperidin-3-yl)-6,7-dihydropyrrolo[3,4-f]isoindole-1,3(2H,5H)-dione], the IC50 in the test with HL60 and in the test on 22Rv1 cells was greater than 10 µM in each case. For the same molecule, the half-maximal degradation concentration (DC50) at P300 and at CBP was greater than 1000 nM in each case. Besides, the Dmax at P300 and at CBP was less than 50% each time.

On to `CC(=O)N1CCc2c(c(N3CCCc4cc5c(cc43)C(C)(C)CCC5)nn2C2CCN(C(=O)CN3Cc4cc5c(cc4C3)C(=O)N(C3CCC(=O)NC3=O)C5=O)CC2)C1` (stereo not drawn) [CP-083, 6-(2-(4-(5-acetyl-3-(9,9-dimethyl-3,4,6,7,8,9-hexahydrobenzo[g]quinolin-1(2H)-yl)-4,5,6,7-tetrahydro-1H-pyrazolo[4,3-c]pyridin-1-yl)piperidin-1-yl)-2-oxoethyl)-2-(2,6-dioxopiperidin-3-yl)-6,7-dihydropyrrolo[3,4-f]isoindole-1,3(2H,5H)-dione], for which the 50% inhibitory concentration (IC50) in the test on HL60 and in the test with 22Rv1 cells was greater than 10 µM in each case. The 50% degradation concentration (DC50) at P300 and on CBP was greater than 1000 nM in each case. Besides, the Dmax at P300 and on CBP was less than 50% throughout.

On to `CC(=O)N1Cc2c(N3CCCc4cc(-c5cnn(C)c5)c(C(F)F)cc43)nn(C3CCN(C(=O)CN4Cc5cc6c(cc5C4)C(=O)N(C4CCC(=O)NC4=O)C6=O)CC3)c2C(C)(C)C1` (stereo not drawn) [CP-084, 6-(2-(4-(5-acetyl-3-(7-(difluoromethyl)-6-(1-methyl-1H-pyrazol-4-yl)-3,4-dihydroquinolin-1(2H)-yl)-7,7-dimethyl-4,5,6,7-tetrahydro-1H-pyrazolo[4,3-c]pyridin-1-yl)piperidin-1-yl)-2-oxoethyl)-2-(2,6-dioxopiperidin-3-yl)-6,7-dihydropyrrolo[3,4-f]isoindole-1,3(2H,5H)-dione], for which the IC50 with HL60 and with 22Rv1 cells was greater than 10 µM each time. The DC50 on P300 and on CBP was greater than 1000 nM throughout. The Dmax at P300 and at CBP was less than 50% each time.

In the case of `CC(=O)N1Cc2c(N3CCCc4cc(-c5ccnn5C)c(C(F)F)cc43)nn(C3CCN(C(=O)CN4Cc5cc6c(cc5C4)C(=O)N(C4CCC(=O)NC4=O)C6=O)CC3)c2C(C)(C)C1` (stereo not drawn) [CP-085, 6-(2-(4-(5-acetyl-3-(7-(difluoromethyl)-6-(1-methyl-1H-pyrazol-5-yl)-3,4-dihydroquinolin-1(2H)-yl)-7,7-dimethyl-4,5,6,7-tetrahydro-1H-pyrazolo[4,3-c]pyridin-1-yl)piperidin-1-yl)-2-oxoethyl)-2-(2,6-dioxopiperidin-3-yl)-6,7-dihydropyrrolo[3,4-f]isoindole-1,3(2H,5H)-dione], the half-maximal inhibitory concentration (IC50) in the test with HL60 and in the test on 22Rv1 cells was greater than 10 µM each time. Moreover, the DC50 on P300 is greater than 1000 nM; on CBP, less than 10 nM. Besides, the Dmax at P300 is less than 50%; on CBP, greater than 70%.
